Test results from the supplement of paper PMC5908809.

Columns and labels:
KHYG-1 (IL-2 2.5 ng/mL) [1] = assay: percent inhibition of viability; higher = more inhibition; details: 72 h
[2] = tested on: normal primary NK cells, pool 2 (3 donors) (IL-2 2.5 ng/mL); assay: as above; details: 72 h
DERL-7 (IL-2 2.5 ng/mL) [3] = assay: as above; details: 72 h
NKL (IL-2 2.5 ng/mL) [4] = assay: as above; details: 72 h
KAI3 (IL-2 2.5 ng/mL) [5] = assay: as above; details: 72 h
NK-92 (IL-2 2.5 ng/mL) [6] = assay: as above; details: 72 h
YT (IL-2 2.5 ng/mL) [7] = assay: as above; details: 72 h
[8] = tested on: normal primary NK cells, pool 3 (3 donors) (IL-2 2.5 ng/mL); assay: as above; details: 72 h
SNK-6 (IL-2 2.5 ng/mL) [9] = assay: as above; details: 72 h
[10] = tested on: normal primary NK cells, pool 1 (3 donors), resting (IL-2 0 ng/mL); assay: as above; details: 72 h
IMC-1 (IL-2 20 ng/mL) [11] = assay: as above; details: 72 h
NK-YS (IL-2 2.5 ng/mL) [12] = assay: as above; details: 72 h
[13] = tested on: normal primary NK cells, pool 1 (3 donors) (IL-2 2.5 ng/mL); assay: as above; details: 72 h
[14] = tested on: normal NK cells expanded with K562-aAPC; assay: drug sensitivity score (DSS) (DSS units); higher = more sensitive; extreme values may be limits of the assay; details: 72 h; IL-2 2.5 ng/mL
Protocol: (§1)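 Drug sensitivity and resistance testing on K562-aAPC-expanded normal NK cells: 5 concentrations (10-fold steps over a 10,000-fold range), 72 h at 37 °C, viability by CellTiter-Glo normalised to DMSO and benzethonium chloride controls; DSS from the fitted curve.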

KHYG-1 (IL-2 2.5 ng/mL) [15] = assay: as above; details: 72 h
[16] = tested on: normal primary NK cells, pool 2 (3 donors) (IL-2 2.5 ng/mL); assay: as above; details: 72 h
DERL-7 (IL-2 2.5 ng/mL) [17] = assay: as above; details: 72 h
NKL (IL-2 2.5 ng/mL) [18] = assay: as above; details: 72 h
KAI3 (IL-2 2.5 ng/mL) [19] = assay: as above; details: 72 h
NK-92 (IL-2 2.5 ng/mL) [20] = assay: as above; details: 72 h
YT (IL-2 2.5 ng/mL) [21] = assay: as above; details: 72 h
[22] = tested on: normal primary NK cells, pool 3 (3 donors) (IL-2 2.5 ng/mL); assay: as above; details: 72 h
SNK-6 (IL-2 2.5 ng/mL) [23] = assay: as above; details: 72 h
[24] = tested on: normal primary NK cells, pool 1 (3 donors), resting (IL-2 0 ng/mL); assay: as above; details: 72 h
IMC-1 (IL-2 20 ng/mL) [25] = assay: as above; details: 72 h
NK-YS (IL-2 2.5 ng/mL) [26] = assay: as above; details: 72 h
[27] = tested on: normal primary NK cells, pool 1 (3 donors) (IL-2 2.5 ng/mL); assay: as above; details: 72 h
[28] = tested on: normal NK cells expanded with K562-aAPC; assay: percent inhibition of viability; higher = more inhibition; details: 72 h, IL-2 2.5 ng/mL
Protocol: as §1

S=c1[nH]cnc2nc[nH]c12 [Mercaptopurine] (max concentration tested 10000 nM)
percent inhibition of viability [%]
Details	1 nM	10 nM	100 nM	1000 nM	10000 nM
DERL-7 (IL-2 2.5 ng/mL) [3]	-4.35	-1.44	0.98	9.85	47
IMC-1 (IL-2 20 ng/mL) [11]	-3.21	-3.47	2.38	21.7	91.4
KAI3 (IL-2 2.5 ng/mL) [5]	-5.39	-4.2	-7.01	6.69	53.7
KHYG-1 (IL-2 2.5 ng/mL) [1]	-2.69	-0.22	5.34	30	99.3
NK-92 (IL-2 2.5 ng/mL) [6]	-10.3	-10.7	12.1	38.5	53.5
NK-YS (IL-2 2.5 ng/mL) [12]	-2.27	-1.87	9.74	52.6	90.4
NKL (IL-2 2.5 ng/mL) [4]	-15.5	0	-11.9	-4.76	6.22
SNK-6 (IL-2 2.5 ng/mL) [9]	11.4	16.1	38.4	75.4	94.4
YT (IL-2 2.5 ng/mL) [7]	-0.59	-2.35	3.64	24.6	81.8
[2]	-14.1	-7.32	-6.91	-13.4	3.06
[8]	-16.8	-9.02	-3.33	-7.89	8.16
[10]	-2.87	-18.3	-8.34	-34.9	-22.3
[13]	-1.1	-6.11	-2.9	-10.7	0.61
[28]	-5.16	4.06	-1.48	3.65	11.2

Details	drug sensitivity score
DERL-7 (IL-2 2.5 ng/mL) [17]	4.05
IMC-1 (IL-2 20 ng/mL) [25]	8.45
KAI3 (IL-2 2.5 ng/mL) [19]	3.99
KHYG-1 (IL-2 2.5 ng/mL) [15]	9.71
NK-92 (IL-2 2.5 ng/mL) [20]	8.34
NK-YS (IL-2 2.5 ng/mL) [26]	11.6
NKL (IL-2 2.5 ng/mL) [18]	0
SNK-6 (IL-2 2.5 ng/mL) [23]	19.7
YT (IL-2 2.5 ng/mL) [21]	8.11
[14]	0.11
[16]	0
[22]	0
[24]	0
[27]	0
